According to patent publication US12060573B2, “Stabilized amorphous calcium carbonate as a supplement for cell culture media” (AMORPHICAL LTD., priority 2016, dated 2024):
Values joined by “and” are separate entries in the source; they are usually repeats but may differ in a detail not shown here. Identical values can stand only once. “Also recorded” adds a separate entry of the source.

Assays:
[1] = tested on: spinal cord-dorsal root ganglia (SC-DRG) slices; experiment: Nerve fiber sprouting from SC-DRG co-cultures; format: cell-based, rat; settings: Ca2+ 2 mM; 4 days of cultivation; portion of 6 explants
Protocol: Neural and Vascular Reconstruction Gel ([…] Labs proprietary) is composed of two main components: high molecular hyaluronic acid (HA, 3×10^6 Da, BTG, Israel) and laminin (Sigma). […] The gel has the texture of a viscous liquid, it adheres easily and successfully the embedded cells or explants to the plastic or glass substratum, and enabled nerve fiber outgrowth in a 3D pattern. All the experiments were carried out and authorized by the local ethics committee recognized by the Israeli authorities for animal experimentation. Stationary organotypic cultures of dorsal root ganglia (DRG) and spinal cord (SC) as well as cultures of dissociated brain cells were prepared from rat fetuses (15 days of gestation, Lewis inbred, Harlan, Israel). Immediately after dissection, the isolated tissues were cut with a […] tissue chopper into small slices (of 400 μm thickness). In these studies, two tissue culture strategies were used. […] In the second method, the tissue slices were further dissociated with a trypsin-EDTA solution for 30 min, and washed with a culture medium. Subsequently, the dissociated cells were added to a suspension of chitosan powder or gastrolith powder (micro carriers, MCs) and incubated in suspension at 37° C. for 4 days. […] The cultures were monitored by daily phase contrast microscopic observations starting from 24 hours after setting the cultures onward. […]

skeletal muscle cultures = experiment: Myotube formation and contractility in healthy skeletal muscle cultures; format: cell-based, rat; settings: added 1 mM, final Ca2+ 2 mM
Protocol: Stationary skeletal muscle cultures were prepared from healthy 1 day new born rat (Sprague Dawley, Harlan, Israel). The muscle tissue was dissected from posterior legs and was thoroughly minced. Digestion was performed with Trypsin-EDTA while gentle trituration. After 30 min the supernatant, containing dissociated cells, was collected and a fresh Trypsin-EDTA was added. This procedure was repeated two more times. Then, all supernatants were pooled, centrifuged, and the cell pellet was re-suspended in Proliferation Medium. Cells were seeded in a Gelatin coated 12 wells culture plates, 1×10^5 cells/well containing 1 mL of Proliferation Medium. Two days later, the medium was changed to Fusion Medium, which was then changed twice a week. The cultures were monitored by daily phase contrast microscopic observations from 24 hours after setting the cultures and onward.
Stock solution of 1% porcine gelatin in water, was sterilized by autoclave. Once cooled, 500 μl of the solution were added to each well of the 12-wells culture plat. After incubation for 20 min at room temperature, the excess solution was removed, and the cells were seeded.
For the proliferation stage, cells were cultured in: DMEM/F12 (containing 1 mM Ca^2+)+10% FBS, 25 μg/mL Gentamycin, and 2 mM L-Glutamine. […]

mice embryos = experiment: In-vitro embryo development in Quinn's Advantage cleavage media; format: cell-based
Protocol: CBA male mice were bred with BL C57 female mice. The mice were kept on a 12 hours photoperiod schedule with unlimited water and food supply. About 6 to 8 weeks after receiving offspring, each female mouse was injected IP with 5IU of pregnant mare serum gonadotropin (PMSG).
After 48 hours each female mouse was injected IP with 5IU human chorionic gonadotropin (hCG). Male mice proven to be fertile were then put together with the superovulated females. The next morning the female mice were examined for the presence of copulatory plugs. Females that had copulatory plugs were euthanized after 24 hours (approximately 36 hours post-coitus) and embryos at 2 cell stage were retrieved from the oviducts as following: the oviducts were dissected in Quinn's Advantage cleavage media (SAGE, Origio, Denmark) and the embryos were transferred to 20 μL drops with Quinn's Advantage cleavage media (SAGE, Origio, Denmark) overlaid with mineral oil and cultured at 37.0° C. under 5% CO2 and atmospheric oxygen. The collected embryos continued to grow, i.e. in-vitro culture (IVC), until blastocyst/hatching stage. To test the effect of amorphous calcium carbonate, the Quinn's Advantage cleavage media (“cleavage media” hereinafter) was supplemented with different additives, i.e. amorphous calcium carbonate stabilized by polyphosphate (ACC-PP), crystalline calcium carbonate (CCC), polyphosphate (PP), phosphoserine (PS) or sodium carbonate ([…]). All supplements were added as a freshly prepared suspension; the preparation of the ACC supplements were performed under aseptic conditions. Untreated cleavage media (without addition of any additive) was used as a control (identified as Cont Q). The embryos were evaluated every day by microscope observation for a detection of the following stages: 2 cells, compactions stage, blastocysts formation and hatching stage. The fraction (in percent) of the embryos reached each stage was calculated (the number of 2 cells embryos was set as 100%).

MBA-13 cells = experiment: Differentiation of MBA13 stem cells to osteoblasts (Alizarin red, alkaline phosphatase staining); format: cell-based; settings: additional 1 mM calcium (total 2.488 mM); 10 days; gelatin coating
Protocol: Two days following thawing, MBA-13 cells (received from Prof. Dov Zipori, Weizmann Institute of Science) were re-suspended in recombinant trypsin solution and seeded on a 96 wells plate, (Day “0”) in a concentration of 1×10^4 cells/well using MSC Nutristem® XF basal medium (Biological Industries, cat #05-200-1A) supplemented with Mesenchymal stem cells (MSC) supplement mix medium (Biological Industries cat #05-201-06) in a ratio of 50 ml:300 μl. […] Row G in the plate was treated with MSCgo medium (total 1.488 mM calcium). Row H of the plate was treated with MSC NutriStem® XF nutrient basal medium+ supplement mix (total 1.488 mM calcium). On day 4, medium was exchanged with fresh preparations of ACC. […] Once the cells were fixated, two types of staining reagents were used to stain extracellular calcium or bone deposition in order to estimate osteoblasts functionality: (i) Alizarin red (Sigma A55333) and (ii) Alkaline Phosphatase (DAKO BCIP/NBT substrate system […]) as following: Alizarin red staining procedure-pH was adjusted to 4.2. Cells were washed twice with PBS and fixed with cold methanol for 5 minutes and then washed again with PBS. […] Then, washed 3 times with PBS and following removal of PBS remnants, 3 drops of BCIP/NBT kit solution was used to cover the cells including one empty well without any cells as control to quantify the assay. […]

mdx cell line = settings: final Ca2+ 2 mM
Protocol: Cells from the Mdx cell line were seeded in a Gelatin coated 12 wells culture plate, 3×10^4 cells/well containing 1 mL of Proliferation Medium. Two days later (˜66% confluence), the medium was changed to Fusion Medium which was changed twice a week. The various calcium preparations were separately added to the Fusion Medium according to the treatment described in Table 3. Cultures were enriched with the various calcium preparations, at Ca^2+ concentration of 1 mM. Since the medium already contained 1 mM of calcium ions, then the final concentration of Ca2+ was of 2 mM
The effects of the tested calcium preparations on cell proliferation, fusion to form myotubes and muscle contraction were monitored by daily phase contrast microscopic observation.

[2] = Example 10, 1.7 mM, embryos of each of 4 mice grown separately, one line per mouse
[3] = Example 14, pooled embryos, 1.7 mM
[4] = Example 15, 1.7 mM, pooled embryos of mice 3-6
[5] = Example 15, 1.7 mM, sibling embryos (mouse 1: CCC; mouse 2: ACC-PP, NaCO3)
[6] = Example 11, 1.6 mM, pooled embryos of mice 3-7
[7] = Example 12, pooled embryos, 1.6 mM

Compound: [Ca+2].[Cl-].[Cl-] [CaCl2, calcium chloride]
- Cultures with axonal regeneration (%) [1]: 50%
- muscle fibers after 7 days (skeletal muscle cultures; 7 days): fewer, thinner and shorter muscle fibers
- time to formation of myotubes (skeletal muscle cultures; dry powder suspended in water): myotubes formation was observed later
- Blast/d3, number of embryos (mice embryos; Example 7 Test A, 1.7 mM): 16
- Blast/d3, portion of initial number of embryos (mice embryos; Example 7 Test A, 1.7 mM): 64%
- Comp/d2, portion of initial number of embryos (mice embryos; Example 7 Test A, 1.7 mM): 64%
- comp/d2, number of embryos (mice embryos; Example 7 Test A, 1.7 mM): 16
- Blast/d3, number of embryos (mice embryos; Example 7 Test B, 1.7 mM): 20
- Blast/d3, portion of initial number of embryos (mice embryos; Example 7 Test B, 1.7 mM): 74%
- Comp/d2, portion of initial number of embryos (mice embryos; Example 7 Test B, 1.7 mM): 70%
- Hatch/d4, number of embryos (mice embryos; Example 7 Test B, 1.7 mM): 11
- Hatch/d4, portion of initial number of embryos (mice embryos; Example 7 Test B, 1.7 mM): 40.7%
- comp/d2, number of embryos (mice embryos; Example 7 Test B, 1.7 mM): 20
- Blast/d3, number of embryos (mice embryos; Example 8, 1.7 mM): 8
- Blast/d3, portion of initial number of embryos (mice embryos; Example 8, 1.7 mM): 80%
- Comp/d2, portion of initial number of embryos (mice embryos; Example 8, 1.7 mM): 30%
- Hatch/d4, number of embryos (mice embryos; Example 8, 1.7 mM): 3
- Hatch/d4, portion of initial number of embryos (mice embryos; Example 8, 1.7 mM): 30%
- comp/d2, number of embryos (mice embryos; Example 8, 1.7 mM): 3
- Blast/d3, number of embryos (mice embryos; Example 9, 1.7 mM): 24
- Blast/d3, portion of initial number of embryos (mice embryos; Example 9, 1.7 mM): 80%
- Comp/d2, portion of initial number of embryos (mice embryos; Example 9, 1.7 mM): 53.3%
- Hatch/d4, number of embryos (mice embryos; Example 9, 1.7 mM): 13
- Hatch/d4, portion of initial number of embryos (mice embryos; Example 9, 1.7 mM): 43.3%
- comp/d2, number of embryos (mice embryos; Example 9, 1.7 mM): 16
- 8Cell/d2, number of embryos (mice embryos; Example 10, 1.7 mM, embryos of each of 4 mice (5 months old) grown separately, one line per mouse): 0 (2×) and 4 and 2
- Blast/d3, number of embryos (mice embryos; [2]): 2 and 5 and 12 and 1
- Blast/d3, portion of initial number of embryos (mice embryos; [2]): (8.3) %; also recorded: (22.2) %; also recorded: (50) %; also recorded: (66.7) %
- Hatch/d4, number of embryos (mice embryos; [2]): 0 (2×) and 3 and 7
- Hatch/d4, portion of initial number of embryos (mice embryos; [2]): (0) %; also recorded: (30) %; also recorded: (41.2) %
- comp/d2, number of embryos (mice embryos; [2]): 3 and 6 and 10 and 1
- effect on embryonic development (blastocysts and hatched blastocysts) (mice embryos; Example 14, 1.7 mM): negative effect on embryonic development
- 8 cell/d2, number of embryos (mice embryos; [3]): 6
- Blast/d3, number of embryos (mice embryos; [3]): 10
- Blast/d3, portion of initial number of embryos (mice embryos; [3]): 90.90%
- Hatch/d4, number of embryos (mice embryos; [3]): 4
- Hatch/d4, portion of initial number of embryos (mice embryos; [3]): 36.36%
- comp/d2, number of embryos (mice embryos; [3]): 5
- Alizarin Red staining (calcium deposition) (MBA-13 cells): weak signal
- muscle contractions first observed, day after seeding (mdx cell line): ≥ 10 days

Compound: O=C([O-])[O-].[Na+].[Na+] [NaCO3, sodium carbonate]
- embryonic development compared to control or ACC-PP (mice embryos; Example 15, 1.7 mM): very poor embryonic development
- 8 cell/d2, number of embryos (mice embryos; [4]): 2
- Blast/d3, number of embryos (mice embryos; [4]): 0
- Blast/d4, number of embryos (mice embryos; [4]): 0
- Hatch/d4, number of embryos (mice embryos; [4]): 0
- Hatch/d4, portion of total number of embryos (mice embryos; [4]): (0) %
- comp/d2, number of embryos (mice embryos; [4]): 7
- degenerative, number of embryos (mice embryos; [4]): 1
- early Blast/d3, number of embryos (mice embryos; [4]): 0
- 8 cell/d2, number of embryos (mice embryos; [5]): 6
- Blast/d3, number of embryos (mice embryos; [5]): 2
- Blast/d4, number of embryos (mice embryos; [5]): 0
- Hatch/d4, number of embryos (mice embryos; [5]): 2
- Hatch/d4, portion of total number of embryos (mice embryos; [5]): (12.5) %
- comp/d2, number of embryos (mice embryos; [5]): 8
- degenerative, number of embryos (mice embryos; [5]): 2
- early Blast/d3, number of embryos (mice embryos; [5]): 14

Compound: polyphosphate [PP]
- 8 cell/d2, number of embryos (mice embryos; [6]): 9
- Blast/d3, number of embryos (mice embryos; [6]): 20
- Blast/d3, portion of initial number of embryos (mice embryos; [6]): 54.1%
- Hatch/d4, number of embryos (mice embryos; [6]): 17
- Hatch/d4, portion of initial number of embryos (mice embryos; [6]): 45.9%
- comp/d2, number of embryos (mice embryos; [6]): 20
- 8 cell/d2, number of embryos (mice embryos; [7]): 6
- Blast/d3, number of embryos (mice embryos; [7]): 34
- Blast/d3, portion of initial number of embryos (mice embryos; [7]): 94.44%
- Hatch/d4, number of embryos (mice embryos; [7]): 16
- Hatch/d4, portion of initial number of embryos (mice embryos; [7]): 44.44%
- comp/d2, number of embryos (mice embryos; [7]): 30
